Measurements published in patent US20160176867A1, “MODIFIED BET-PROTEIN-INHIBITING DIHYDROQUINOXALINONES AND DIHYDROPYRIDOPYRAZINONES” (BAYER PHARMA AKTIENGESELLSCHAFT, priority 2013, published 2016).

Assays:
CHL-1 cells = experiment: Cell proliferation assay (alamarBlue), CHL-1; type: cell-based; conditions: Homo sapiens; CHL-1 (melanoma, BRAF wild-type), 96 hours
Protocol: In accordance with the invention, the ability of the substances to inhibit cell proliferation was determined. Cell viability was determined by means of the alamarBlue® reagent (Invitrogen) in a Victor X3 Multilabel Reader (Perkin Elmer). The excitation wavelength was 530 nm and the emission wavelength […].
The CHL-1 cells (ATCC, CRL-9446) were sown at a concentration of 1000 cells/well in 100 μl of growth medium (DMEM with glutamine, 10% FCS) on 96-well microtitre plates.
After overnight incubation at 37° C., the fluorescence values were determined (CI values). Then the plates were treated with various substance dilutions (1E-5 M, 3E-6 M, 1E-6 M, 3E-7 M, 1E-7 M, 3E-8 M, 1E-8 M) and incubated at 37° C. over 96 hours (MOLM-13, B16F10, CHL-1 cells) or 120 hours (MOLP-8 cells). Subsequently, the fluorescence values were determined (CO values). For the data analysis, the CI values were subtracted from the CO values and the results were compared between cells which had been treated with various dilutions of the substance or only with buffer solution. The IC50 values (substance concentration needed for 50% inhibition of cell proliferation) were calculated therefrom.

[1] = target: T1, BRD4 bromo domain 2 [BRD4(2)] (Homo sapiens, UniProt O60885); experiment: BRD4/acetylated peptide H4 binding assay (TR-FRET), BRD4 bromo domain 2; conditions: inhibition of BRD4(2)/Ac-H4 peptide interaction
T1 construct: N-terminally His6-tagged BRD4(2) (amino acids 357-445); made in house; host or cells: E. coli
Summary of the method: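 IC50 comes from a 4-parameter fit over 0.1 nM–20 μM in duplicate, normalised to DMSO and no-protein controls. TR-FRET (Eu-streptavidin/anti-His-XL665) tracks His-tagged BRD4(2) 357-445 at 100 nM binding Ac-H4 peptide in HEPES pH 7.5 buffer. Incubation was 1 h at 22 °C, then at 4 °C ≥3 h up to overnight.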

| Compound | IC50 (CHL-1 cells) | IC50 [1] |
| --- | --- | --- |
| C[C@@H]1C(=O)N(C)c2ccc(Nc3cccc(S(=O)(=O)NC4CC4)c3)nc2N1C1CCOCC1 [Example 26, N-Cyclopropyl-3-{[(3R)-1,3-dimethyl-2-oxo-4-(tetrahydro-2H-pyran-4-yl)-1,2,3,4-tetrahydropyrido[2,3-b]pyrazin-6-yl]amino}benzenesulphonamide] | 31 nM | 31 nM |
| C[C@@H]1C(=O)N(C)c2ccc(Nc3cccc(S(=O)(=O)N[C@H]4CC[C@H](N5CCN(CC6CC6)CC5)CC4)c3)nc2N1C1CCNCC1 [Example 127, N-{trans-4-[4-(cyclopropylmethyl)piperazin-1-yl]cyclohexyl}-3-{[(3R)-1,3-dimethyl-2-oxo-4-(piperidin-4-yl)-1,2,3,4-tetrahydropyrido[2,3-b]pyrazin-6-yl]amino}-benzenesulphonamide] | > 20000 nM | 90 nM |
| COc1ccc(S(=O)(=O)N2CCOCC2)cc1Nc1ccc2c(n1)N(C1CCN(C)CC1)[C@H](C)C(=O)N2C [Example 25, (3R)-6-{[2-Methoxy-5-(morpholin-4-ylsulphonyl)phenyl]amino}-1,3-dimethyl-4-(1-methylpiperidin-4-yl)-3,4-dihydropyrido[2,3-b]pyrazin-2(1H)-one] | 16 nM | 56 nM |
| COc1ccc(S(=O)(=O)N2CCN(C)CC2)cc1Nc1ccc2c(n1)N(C1CCN(C)CC1)[C@H](C)C(=O)N2C [Example 46, (3R)-6-({2-methoxy-5-[(4-methylpiperazin-1-yl)sulphonyl]phenyl}-amino)-1,3-dimethyl-4-(1-methylpiperidin-4-yl)-3,4-dihydropyrido[2,3-b]pyrazin-2(1H)-one] | 64 nM | 69 nM |
| COc1ccc(S(=O)(=O)N2CCN(C)CC2)cc1Nc1ccc2c(n1)N(C1CCOCC1)[C@H](C)C(=O)N2C [Example 40, (3R)-6-({2-methoxy-5-[(4-methylpiperazin-1-yl)sulphonyl]phenyl}-amino)-1,3-dimethyl-4-(tetrahydro-2H-pyran-4-yl)-3,4-dihydropyrido[2,3-b]pyrazin-2(1H)-one] | 56 nM | 52 nM |
| COc1ccc(S(=O)(=O)N2CC3(COC3)C2)cc1Nc1ccc2c(n1)N(C1CCOCC1)[C@H](C)C(=O)N2C [Example 30, (3R)-6-{[2-Methoxy-5-(2-oxa-6-azaspiro[3.3]hept-6-ylsulphonyl)phenyl]amino}-1,3-dimethyl-4-(tetrahydro-2H-pyran-4-yl)-3,4-dihydropyrido[2,3-b]pyrazin-2(1H)-one] | 80 nM | 58 nM |
| C[C@@H]1C(=O)N(C)c2ccc(Nc3cccc(S(=O)(=O)N4CCN(CC(F)(F)F)CC4)c3)nc2N1C1CCNCC1 [Example 126, (3R)-1,3-dimethyl-4-(piperidin-4-yl)-6-[(3-{[4-(2,2,2-trifluoroethyl)piperazin-1-yl]sulphonyl}phenyl)amino]-3,4-dihydropyrido[2,3-b]pyrazin-2(1H)-one] | 202 nM | 86 nM |
| C[C@@H]1C(=O)N(C)c2ccc(Nc3cccc(S(=O)(=O)N4CCN(C)CC4)c3)nc2N1C1CCN(C)CC1 [Example 50, (3R)-1,3-dimethyl-6-({3-[(4-methylpiperazin-1-yl)sulphonyl]phenyl}-amino)-4-(1-methyl-piperidin-4-yl)-3,4-dihydropyrido[2,3-b]pyrazin-2(1H)-one] | 118 nM | 121 nM |
| COc1ccc(C(=O)NC2CCN(C)CC2)cc1Nc1ccc2c(n1)N(C1CCOCC1)[C@H](C)C(=O)N2C [Example 16, 3-{[(3R)-1,3-Dimethyl-2-oxo-4-(tetrahydro-2H-pyran-4-yl)-1,2,3,4-tetrahydropyrido[2,3-b]pyrazin-6-yl]amino}-4-methoxy-N-(1-methylpiperidin-4-yl)benzamide] | 346 nM | 174 nM |
| C[C@@H]1C(=O)N(C)c2ccc(Nc3cccc(S(=O)(=O)N(C)C)c3)nc2N1C1CCN(C)CC1 [Example 41, 3-{[(3R)-1,3-dimethyl-4-(1-methylpiperidin-4-yl)-2-oxo-1,2,3,4-tetrahydropyrido[2,3-b]pyrazin-6-yl]amino}-N,N-dimethylbenzene-sulphonamide] | 21 nM | 43 nM |
| C[C@@H]1C(=O)N(C)c2ccc(Nc3cccc(S(=O)(=O)N(C)C)c3)nc2N1C1CCNCC1 [Example 123, 3-{[(3R)-1,3-dimethyl-2-oxo-4-(piperidin-4-yl)-1,2,3,4-tetrahydropyrido[2,3-b]pyrazin-6-yl]amino}-N,N-dimethylbenzene-sulphonamide] | 218 nM | 62 nM |
| C[C@@H]1C(=O)N(C)c2ccc(Nc3cccc(C(=O)N[C@H]4CC[C@H](N5CCN(CC6CC6)CC5)CC4)c3)nc2N1C1CCNCC1 [Example 131, N-{trans-4-[4-(cyclo-propylmethyl)piperazin-1-yl]cyclohexyl}-3-{[(3R)-1,3-dimethyl-2-oxo-4-(piperidin-4-yl)-1,2,3,4-tetrahydropyrido[2,3-b]pyrazin-6-yl]amino}benzamide] | > 20000 nM | 188 nM |
| CNS(=O)(=O)c1cccc(Nc2ccc3c(n2)N(C2CCOCC2)[C@H](C)C(=O)N3C)c1 [Example 39, 3-{[(3R)-1,3-dimethyl-2-oxo-4-(tetrahydro-2H-pyran-4-yl)-1,2,3,4-tetrahydropyrido[2,3-b]pyrazin-6-yl]amino}-N-methylbenzenesulphon-amide] | 63 nM | 135 nM |
| C[C@@H]1C(=O)N(C)c2ccc(Nc3cccc(S(=O)(=O)N4CCCC4)c3)nc2N1C1CCN(C)CC1 [Example 24, (3R)-1,3-Dimethyl-4-(1-methylpiperidin-4-yl)-6-{[3-(pyrrolidin-1-ylsulphonyl)phenyl]amino}-3,4-dihydropyrido[2,3-b]pyrazin-2(1H)-one] | 13 nM | 55 nM |
| C[C@@H]1C(=O)N(C)c2ccc(Nc3cccc(C(=O)N4CCN(C)CC4)c3)nc2N1Cc1ccccc1 [Example 75] | 125 nM | 79 nM |
| C[C@@H]1C(=O)N(C)c2ccc(Nc3cccc(S(=O)(=O)N(C)C)c3)cc2N1C1CCNCC1 [Example 129, 3-{[(3R)-1,3-dimethyl-2-oxo-4-(piperidin-4-yl)-1,2,3,4-tetrahydroquinoxalin-6-yl]amino}-N,N-dimethylbenzenesulphon-amide] | 945 nM | 97 nM |
| C[C@@H]1C(=O)N(C)c2ccc(Nc3cccc(S(=O)(=O)NCC4CCN(C)CC4)c3)nc2N1C1CCOCC1 [Example 44, 3-{[(3R)-1,3-dimethyl-2-oxo-4-(tetrahydro-2H-pyran-4-yl)-1,2,3,4-tetrahydropyrido[2,3-b]pyrazin-6-yl]amino}-N-[(1-methylpiperidin-4-yl)methyl]benzene-sulphonamide] | 362 nM | 88 nM |
| C[C@@H]1C(=O)N(C)c2ccc(Nc3cccc(S(=O)(=O)N4CCCC4)c3)nc2N1C1CCOCC1 [Example 27, (3R)-1,3-Dimethyl-6-{[3-(pyrrolidin-1-ylsulphonyl)phenyl]amino}-4-(tetrahydro-2H-pyran-4-yl)-3,4-dihydropyrido[2,3-b]pyrazin-2(1H)-one] | 23 nM | 40 nM |
| C[C@@H]1C(=O)N(C)c2ccc(Nc3cccc(S(=O)(=O)N[C@H]4CC[C@H](N5CCN(CC6CC6)CC5)CC4)c3)nc2N1Cc1ccccc1 [Example 38, 3-{[(3R)-4-benzyl-1,3-dimethyl-2-oxo-1,2,3,4-tetrahydropyrido[2,3-b]pyrazin-6-yl]amino}-N-{trans-4-[4-(cyclopropyl-methyl)piperazin-1-yl]cyclohexyl}-benzenesulphonamide] | 19 nM | 48 nM |
| COc1ccc(S(=O)(=O)N2CCOCC2)cc1Nc1ccc2c(n1)N(C1CCOCC1)[C@H](C)C(=O)N2C [Example 28, (3R)-6-{[2-Methoxy-5-(morpholin-4-ylsulphonyl)phenyl]amino}-1,3-dimethyl-4-(tetrahydro-2H-pyran-4-yl)-3,4-dihydropyrido[2,3-b]pyrazin-2(1H)-one] | 14 nM | 53 nM |
| C[C@@H]1C(=O)N(C)c2ccc(Nc3cccc(S(=O)(=O)N[C@H]4CC[C@H](N5CCN(CC6CC6)CC5)CC4)c3)nc2N1C1CCN(C(=O)OC(C)(C)C)CC1 [Example 52, tert-butyl 4-[(3R)-6-{[3-({trans-4-[4-(cyclo-propylmethyl)piperazin-1-yl]cyclohexyl}-sulphamoyl)phenyl]amino}-1,3-dimethyl-2-oxo-2,3-dihydropyrido[2,3-b]pyrazin-4(1H)-yl]piperidine-1-carboxylate] | 147 nM | 86 nM |
| CCNS(=O)(=O)c1cccc(Nc2ccc3c(n2)N(C2CCOCC2)[C@H](C)C(=O)N3C)c1 [Example 23, 3-{[(3R)-1,3-dimethyl-2-oxo-4-(tetrahydro-2H-pyran-4-yl)-1,2,3,4-tetrahydropyrido[2,3-b]pyrazin-6-yl]amino}-N-ethylbenzenesulphonamide] | 50 nM | 39 nM |
